This is an account of results in patent US12479847B2 (DANA-FARBER CANCER INSTITUTE, INC., priority 2019, dated 2025).

What all share (assay): KINOMEscan (ScanMAX) kinase profiling
Holding throughout (format): binding

Experiment [1] concerns the target T1, panel of 468 kinases (Homo sapiens, UniProt P48736).
T1 construct: purchased KINOMEscan (ScanMAX) service
The note with it: PIK3CG; 1 μM; read-out: % control.

Experiment [2] addresses T2, panel of 468 kinases (Homo sapiens, UniProt P35626).
T2 construct: purchased KINOMEscan (ScanMAX) service
T2 sequence (P35626 1-688): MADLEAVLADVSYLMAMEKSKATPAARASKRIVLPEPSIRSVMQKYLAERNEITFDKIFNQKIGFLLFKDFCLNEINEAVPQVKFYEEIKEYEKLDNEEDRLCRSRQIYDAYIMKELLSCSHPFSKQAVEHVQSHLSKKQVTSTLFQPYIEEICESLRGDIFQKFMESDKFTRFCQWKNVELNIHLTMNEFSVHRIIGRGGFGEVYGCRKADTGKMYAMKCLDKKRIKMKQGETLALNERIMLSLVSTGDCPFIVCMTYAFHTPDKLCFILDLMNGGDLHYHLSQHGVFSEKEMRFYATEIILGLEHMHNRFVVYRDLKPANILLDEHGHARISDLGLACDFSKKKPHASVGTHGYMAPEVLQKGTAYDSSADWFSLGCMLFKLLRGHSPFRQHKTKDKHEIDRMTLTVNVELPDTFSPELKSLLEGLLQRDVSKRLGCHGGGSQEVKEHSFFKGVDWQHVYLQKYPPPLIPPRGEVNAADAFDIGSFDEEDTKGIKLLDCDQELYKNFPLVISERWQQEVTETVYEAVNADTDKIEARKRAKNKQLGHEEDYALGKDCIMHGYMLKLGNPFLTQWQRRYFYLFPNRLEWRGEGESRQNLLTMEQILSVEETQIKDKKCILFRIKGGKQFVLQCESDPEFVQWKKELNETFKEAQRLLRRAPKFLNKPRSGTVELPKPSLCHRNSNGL
To be noted: GRK3; 1 μM; read-out: % control.

Experiment [3] concerns the target T3, panel of 468 kinases (Homo sapiens, UniProt Q14004).
T3 construct: purchased KINOMEscan (ScanMAX) service
To be noted: CDC2L5; 1 μM; read-out: % control.

Experiment [4] deals with T4, panel of 468 kinases (Homo sapiens, UniProt P36888, D835H).
T4 construct: purchased KINOMEscan (ScanMAX) service
T4 sequence (P36888 27-993 D835H): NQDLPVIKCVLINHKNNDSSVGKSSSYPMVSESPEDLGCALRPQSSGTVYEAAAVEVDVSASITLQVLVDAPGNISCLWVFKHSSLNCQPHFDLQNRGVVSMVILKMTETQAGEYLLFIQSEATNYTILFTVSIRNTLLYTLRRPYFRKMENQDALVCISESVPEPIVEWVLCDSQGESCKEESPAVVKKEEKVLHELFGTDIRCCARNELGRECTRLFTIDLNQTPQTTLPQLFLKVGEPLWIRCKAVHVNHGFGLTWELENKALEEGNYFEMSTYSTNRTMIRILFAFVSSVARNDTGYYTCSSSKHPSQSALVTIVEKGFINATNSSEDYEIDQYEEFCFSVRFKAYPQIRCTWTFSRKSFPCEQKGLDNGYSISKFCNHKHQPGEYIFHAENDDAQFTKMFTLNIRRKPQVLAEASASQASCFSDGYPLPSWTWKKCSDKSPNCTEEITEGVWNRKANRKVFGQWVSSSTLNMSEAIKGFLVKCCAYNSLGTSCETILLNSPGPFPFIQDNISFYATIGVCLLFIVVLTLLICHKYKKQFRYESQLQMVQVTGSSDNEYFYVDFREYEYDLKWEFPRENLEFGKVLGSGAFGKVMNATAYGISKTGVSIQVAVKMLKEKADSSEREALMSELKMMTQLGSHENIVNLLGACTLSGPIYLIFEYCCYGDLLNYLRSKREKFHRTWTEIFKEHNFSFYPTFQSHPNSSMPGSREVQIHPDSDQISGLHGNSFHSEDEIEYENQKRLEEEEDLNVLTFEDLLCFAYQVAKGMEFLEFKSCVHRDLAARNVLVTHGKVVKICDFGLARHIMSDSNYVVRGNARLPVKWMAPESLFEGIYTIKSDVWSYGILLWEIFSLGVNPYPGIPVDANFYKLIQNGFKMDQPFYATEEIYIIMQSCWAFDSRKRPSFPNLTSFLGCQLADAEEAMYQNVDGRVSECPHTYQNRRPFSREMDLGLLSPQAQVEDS
The note with it: FLT3(D835H); 1 μM; read-out: % control.

The target in experiment [5] is T5, panel of 468 kinases (Homo sapiens, UniProt Q8WTQ7).
T5 construct: purchased KINOMEscan (ScanMAX) service
T5 sequence (Q8WTQ7 1-553): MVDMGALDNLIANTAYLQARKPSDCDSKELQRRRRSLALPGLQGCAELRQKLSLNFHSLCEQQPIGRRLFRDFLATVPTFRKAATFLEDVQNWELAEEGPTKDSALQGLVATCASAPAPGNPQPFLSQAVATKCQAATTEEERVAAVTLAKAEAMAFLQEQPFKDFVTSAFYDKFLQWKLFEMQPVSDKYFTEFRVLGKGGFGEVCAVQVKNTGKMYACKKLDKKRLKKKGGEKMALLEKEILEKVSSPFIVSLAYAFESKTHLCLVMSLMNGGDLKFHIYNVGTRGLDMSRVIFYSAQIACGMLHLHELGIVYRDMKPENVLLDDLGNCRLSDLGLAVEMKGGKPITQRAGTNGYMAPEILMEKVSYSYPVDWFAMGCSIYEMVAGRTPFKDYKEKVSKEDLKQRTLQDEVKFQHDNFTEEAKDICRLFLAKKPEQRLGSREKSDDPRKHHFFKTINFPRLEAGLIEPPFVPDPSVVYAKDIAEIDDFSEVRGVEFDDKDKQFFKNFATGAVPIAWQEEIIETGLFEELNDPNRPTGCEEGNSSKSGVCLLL
To be noted: GRK7; 1 μM; read-out: % control.

The target of experiment [6] is T6, panel of 468 kinases (Homo sapiens, UniProt O95819).
T6 construct: purchased KINOMEscan (ScanMAX) service
T6 sequence (O95819 whole entry): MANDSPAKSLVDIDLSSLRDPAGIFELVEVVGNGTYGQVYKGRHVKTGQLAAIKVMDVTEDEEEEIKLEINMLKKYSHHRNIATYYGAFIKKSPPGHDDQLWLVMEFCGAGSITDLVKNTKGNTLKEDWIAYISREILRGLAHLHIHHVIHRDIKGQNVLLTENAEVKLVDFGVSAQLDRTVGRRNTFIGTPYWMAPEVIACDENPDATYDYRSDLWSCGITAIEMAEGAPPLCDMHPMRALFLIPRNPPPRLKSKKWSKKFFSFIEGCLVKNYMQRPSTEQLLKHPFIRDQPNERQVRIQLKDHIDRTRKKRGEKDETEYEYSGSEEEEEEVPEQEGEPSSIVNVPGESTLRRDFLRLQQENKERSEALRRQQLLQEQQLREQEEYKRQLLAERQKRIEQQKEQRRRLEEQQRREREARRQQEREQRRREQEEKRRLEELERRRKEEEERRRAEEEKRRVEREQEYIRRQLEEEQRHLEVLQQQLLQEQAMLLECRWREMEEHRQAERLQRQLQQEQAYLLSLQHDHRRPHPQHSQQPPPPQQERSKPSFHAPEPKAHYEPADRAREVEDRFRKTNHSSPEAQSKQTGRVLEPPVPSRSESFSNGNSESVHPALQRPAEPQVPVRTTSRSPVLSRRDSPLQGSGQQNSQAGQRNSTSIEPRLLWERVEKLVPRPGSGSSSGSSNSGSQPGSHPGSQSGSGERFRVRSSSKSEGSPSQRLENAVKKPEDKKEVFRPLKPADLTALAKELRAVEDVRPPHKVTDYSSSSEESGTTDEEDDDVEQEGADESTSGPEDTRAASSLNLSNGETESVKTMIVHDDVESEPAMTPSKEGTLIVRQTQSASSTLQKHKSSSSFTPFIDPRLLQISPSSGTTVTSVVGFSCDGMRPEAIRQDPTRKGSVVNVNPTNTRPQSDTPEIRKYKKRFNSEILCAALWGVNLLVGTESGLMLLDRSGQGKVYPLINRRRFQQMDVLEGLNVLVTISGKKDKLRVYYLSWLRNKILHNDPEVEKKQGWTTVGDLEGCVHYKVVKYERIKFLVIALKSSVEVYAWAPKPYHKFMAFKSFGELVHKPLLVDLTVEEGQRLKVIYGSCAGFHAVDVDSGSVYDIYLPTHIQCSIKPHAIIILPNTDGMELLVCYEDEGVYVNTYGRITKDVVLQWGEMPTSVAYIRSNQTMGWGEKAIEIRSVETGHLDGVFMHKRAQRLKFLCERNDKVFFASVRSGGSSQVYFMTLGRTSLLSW
The note with it: MAP4K4; 1 μM; read-out: % control.

Experiment [7] addresses T7, panel of 468 kinases (Homo sapiens, UniProt P48730).
T7 construct: purchased KINOMEscan (ScanMAX) service
To be noted: CSNK1D; 1 μM; read-out: % control.

Experiment [8] concerns the target T8, panel of 468 kinases (Homo sapiens, UniProt P50750).
T8 construct: purchased KINOMEscan (ScanMAX) service
The note with it: CDK9; 1 μM; read-out: % control.

T1 sequence (P48736 whole entry): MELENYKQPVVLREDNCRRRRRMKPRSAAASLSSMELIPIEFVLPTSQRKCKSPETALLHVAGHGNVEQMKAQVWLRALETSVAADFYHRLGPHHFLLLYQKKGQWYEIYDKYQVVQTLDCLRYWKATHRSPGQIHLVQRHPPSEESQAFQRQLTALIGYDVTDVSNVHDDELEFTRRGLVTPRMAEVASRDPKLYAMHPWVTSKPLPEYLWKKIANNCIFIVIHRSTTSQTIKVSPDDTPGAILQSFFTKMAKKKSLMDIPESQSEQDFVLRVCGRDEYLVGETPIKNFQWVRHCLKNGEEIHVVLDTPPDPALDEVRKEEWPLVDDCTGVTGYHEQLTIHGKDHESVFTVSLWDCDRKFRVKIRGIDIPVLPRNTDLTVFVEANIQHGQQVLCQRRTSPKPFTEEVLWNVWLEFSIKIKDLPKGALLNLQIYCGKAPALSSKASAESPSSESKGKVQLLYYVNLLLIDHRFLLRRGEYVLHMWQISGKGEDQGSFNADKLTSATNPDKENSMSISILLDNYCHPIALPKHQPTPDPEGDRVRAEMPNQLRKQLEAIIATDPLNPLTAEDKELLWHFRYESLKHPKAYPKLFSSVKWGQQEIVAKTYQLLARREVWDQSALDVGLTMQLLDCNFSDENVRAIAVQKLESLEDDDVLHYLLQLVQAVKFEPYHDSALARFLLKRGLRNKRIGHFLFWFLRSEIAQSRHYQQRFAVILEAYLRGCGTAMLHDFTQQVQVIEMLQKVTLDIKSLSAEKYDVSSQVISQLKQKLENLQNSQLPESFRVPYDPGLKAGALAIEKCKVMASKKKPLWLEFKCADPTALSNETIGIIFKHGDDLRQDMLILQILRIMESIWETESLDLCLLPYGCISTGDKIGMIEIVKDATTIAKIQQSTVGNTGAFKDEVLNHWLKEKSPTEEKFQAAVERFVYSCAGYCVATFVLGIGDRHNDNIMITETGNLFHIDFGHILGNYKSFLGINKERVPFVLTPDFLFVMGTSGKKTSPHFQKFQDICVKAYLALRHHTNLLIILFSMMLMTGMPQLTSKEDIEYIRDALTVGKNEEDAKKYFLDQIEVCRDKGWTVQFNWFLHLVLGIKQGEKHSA
T8 sequence (P50750 whole entry): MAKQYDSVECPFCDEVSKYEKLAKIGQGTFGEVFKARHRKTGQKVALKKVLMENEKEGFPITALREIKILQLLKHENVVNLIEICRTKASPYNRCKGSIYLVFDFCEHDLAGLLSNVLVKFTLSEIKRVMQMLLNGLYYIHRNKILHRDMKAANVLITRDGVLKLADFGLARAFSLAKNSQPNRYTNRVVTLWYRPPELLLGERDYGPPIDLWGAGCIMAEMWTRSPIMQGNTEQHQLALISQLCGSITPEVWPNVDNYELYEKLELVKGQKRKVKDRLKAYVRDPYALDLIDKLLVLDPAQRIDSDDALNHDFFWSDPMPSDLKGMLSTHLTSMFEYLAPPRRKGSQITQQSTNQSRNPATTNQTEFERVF
T3 sequence (Q14004 whole entry): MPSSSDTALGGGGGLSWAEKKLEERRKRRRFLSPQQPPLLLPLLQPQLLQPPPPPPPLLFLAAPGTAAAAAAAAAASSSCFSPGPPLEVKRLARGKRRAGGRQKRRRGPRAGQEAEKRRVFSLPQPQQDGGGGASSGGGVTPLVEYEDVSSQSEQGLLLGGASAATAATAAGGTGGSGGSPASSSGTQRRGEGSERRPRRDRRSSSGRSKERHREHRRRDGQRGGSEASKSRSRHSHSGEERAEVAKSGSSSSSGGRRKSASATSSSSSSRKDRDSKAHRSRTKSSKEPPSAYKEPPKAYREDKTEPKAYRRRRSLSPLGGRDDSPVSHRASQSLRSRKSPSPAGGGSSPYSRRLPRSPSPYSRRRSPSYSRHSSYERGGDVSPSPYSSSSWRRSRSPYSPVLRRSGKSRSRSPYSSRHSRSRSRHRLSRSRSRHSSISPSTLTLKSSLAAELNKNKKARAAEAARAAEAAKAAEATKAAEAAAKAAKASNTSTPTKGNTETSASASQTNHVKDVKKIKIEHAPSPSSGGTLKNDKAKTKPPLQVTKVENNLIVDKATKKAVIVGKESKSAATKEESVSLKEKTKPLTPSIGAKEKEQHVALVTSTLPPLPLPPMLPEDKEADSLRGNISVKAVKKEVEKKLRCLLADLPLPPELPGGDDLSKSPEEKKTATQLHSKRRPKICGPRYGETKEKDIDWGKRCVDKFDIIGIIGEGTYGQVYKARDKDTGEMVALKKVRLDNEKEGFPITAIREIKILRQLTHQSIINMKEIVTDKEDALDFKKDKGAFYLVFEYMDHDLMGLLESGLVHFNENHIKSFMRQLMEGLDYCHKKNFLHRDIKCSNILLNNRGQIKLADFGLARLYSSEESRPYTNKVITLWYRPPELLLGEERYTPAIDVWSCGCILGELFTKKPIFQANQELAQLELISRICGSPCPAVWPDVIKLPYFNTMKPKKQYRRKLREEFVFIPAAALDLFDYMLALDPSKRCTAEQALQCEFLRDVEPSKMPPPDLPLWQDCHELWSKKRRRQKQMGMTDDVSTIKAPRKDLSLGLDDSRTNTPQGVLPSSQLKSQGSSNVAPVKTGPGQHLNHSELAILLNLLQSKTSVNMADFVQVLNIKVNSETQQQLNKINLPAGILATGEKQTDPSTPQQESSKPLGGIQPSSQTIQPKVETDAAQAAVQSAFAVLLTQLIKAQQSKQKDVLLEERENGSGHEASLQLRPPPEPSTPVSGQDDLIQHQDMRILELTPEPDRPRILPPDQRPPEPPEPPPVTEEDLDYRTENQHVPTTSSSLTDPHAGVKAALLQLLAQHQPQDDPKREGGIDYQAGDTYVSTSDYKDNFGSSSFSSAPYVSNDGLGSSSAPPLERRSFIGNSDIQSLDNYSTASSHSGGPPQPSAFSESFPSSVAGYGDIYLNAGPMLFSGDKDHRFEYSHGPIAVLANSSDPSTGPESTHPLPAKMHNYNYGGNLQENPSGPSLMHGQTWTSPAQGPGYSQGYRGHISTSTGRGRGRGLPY
T7 sequence (P48730 whole entry): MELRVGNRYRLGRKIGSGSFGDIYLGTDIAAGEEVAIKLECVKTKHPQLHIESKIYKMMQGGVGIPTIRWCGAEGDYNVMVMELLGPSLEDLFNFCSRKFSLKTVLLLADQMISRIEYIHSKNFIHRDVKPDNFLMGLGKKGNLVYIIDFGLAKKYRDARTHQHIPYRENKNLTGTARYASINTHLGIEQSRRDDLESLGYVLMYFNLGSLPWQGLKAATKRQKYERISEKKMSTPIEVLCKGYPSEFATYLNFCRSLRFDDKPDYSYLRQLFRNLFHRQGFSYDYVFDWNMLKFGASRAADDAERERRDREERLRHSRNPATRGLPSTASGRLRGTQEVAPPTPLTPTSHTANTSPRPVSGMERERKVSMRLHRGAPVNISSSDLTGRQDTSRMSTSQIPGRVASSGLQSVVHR

`CNc1nc(Nc2ccc(S(=O)(=O)N3CCC(N4CCOCC4)CC3)cc2OC)nc2[nH]cc(Cl)c12` [Compound 12, 5-chloro-N2-(2-methoxy-4-((4-morpholinopiperidin-1-yl)sulfonyl)phenyl)-N4-methyl-7H-pyrrolo[2,3-d]pyrimidine-2,4-diamine]: the remaining binding at 1 µM at panel of 468 kinases [1] amounted to 95%; on panel of 468 kinases [2], 100%; on panel of 468 kinases [3], 54%; at panel of 468 kinases [4] it was 100%; at panel of 468 kinases [5], 100%; at panel of 468 kinases [6], 95%. Also, the values for the remaining binding at 1 µM on panel of 468 kinases [7] and at panel of 468 kinases [8] were 9.5% and 100%, respectively.

As for `CNc1nc(Nc2ccc(P3(=O)CCN(C4CCOCC4)CC3)cc2OC)nc2[nH]cc(Cl)c12` [Compound 77, 4-(4-((5-chloro-4-(methylamino)-7H-pyrrolo[2,3-d]pyrimidin-2-yl)amino)-3-methoxyphenyl)-1-(tetrahydro-2H-pyran-4-yl)-1,4-azaphosphinane 4-oxide], the remaining binding at 1 µM at panel of 468 kinases [1] turned out to be 100%; at panel of 468 kinases [2], 82%; on panel of 468 kinases [3] it was 55%; at panel of 468 kinases [4], 84%; on panel of 468 kinases [5], 99%; at panel of 468 kinases [6], 100%. Further, the values for the remaining binding at 1 µM on panel of 468 kinases [7] and on panel of 468 kinases [8] were 8.9% and 100%, respectively.

Consider `CNc1nc(Nc2ccc(C(=O)N3CCC(N4CCOCC4)CC3)c3c2OCO3)nc2[nH]cc(Cl)c12` [Compound 75, (7-((5-chloro-4-(methylamino)-7H-pyrrolo[2,3-d]pyrimidin-2-yl)amino)benzo[d][1,3]dioxol-4-yl)(4-morpholinopiperidin-1-yl)methanone], for which the remaining binding at 1 µM on panel of 468 kinases [1] amounted to 100%; on panel of 468 kinases [2], 78%; at panel of 468 kinases [3] it was 57%; at panel of 468 kinases [4] it was 37%; at panel of 468 kinases [5], 100%; at panel of 468 kinases [6], 54%. Also, the remaining binding at 1 µM came to 15% at panel of 468 kinases [7] and 100% on panel of 468 kinases [8].
